# Entries after “also recorded” stand apart in the source; their conditions may differ. Marks after values point to notes of the source that are not given here.
# Assays:
# lung tissue = assay: Gut I/R model, lung tissue
# [1] = tested on: polarised Caco-2 monolayers; assay: Permeation of horseradish peroxidase (HRP) through the monolayer after H/R; format: cell-based, human
# Method: (§1) Hypoxia (Ischemia)/Normoxia (Reperfusion) (H/R) protocols for in vitro studies: For all experiments AGS, Caco-2 and RIE1 cells were set up in plates as described in specific methods. Cells were used at 70-80% confluence for cell injury/death assessment and as confluent monolayers for permeability studies. To induce “ischemia”, cells were placed in a hypoxic incubator (2% 02) for specified time and to mimic reperfusion, cells were placed back in a normoxic (21% 02) incubator for specified time. All treatments were duplicated in a second set of identical plates under normoxic conditions throughout the same test period as controls. To determine optimum conditions for the in vitro studies, pilot studies were performed.
# The effect of […] PSTI pre-treatment on transepithelial permeability induced by 1 hour of hypoxia followed by 24 hours of normoxia was examined using Caco-2, human polarizing colonic adenocarcinoma cells utilizing two different previously published methods according to Davison et al., 2016, Am J Nutr 2016; 104:526-536. One method determined change in transepithelial electrical resistance (TEER) and the other method analyzed the passage of horseradish peroxidase (HRP) across the epithelial layer. HRP (type II) is a non-digestible macromolecular protein (MW=44 kD) and has previously been used as a tracer in evaluation of epithelial permeability. Each monolayer had TEER and HRP permeability assessed at baseline, at the end of 1 h incubation in an hypoxic (ischemic) chamber and at the end of a 24 h reoxygenation (reperfusion) period. Measurements were taken in triplicate from 4 wells per treatment. Results are expressed as mean+/−SEM.
# bladder cancer = conditions: cited from earlier work
# AGS cells = assay: Apoptotic and protective pathways after H/R in AGS cells; format: cell-based, human; conditions: Hyp 1 h/Rep 24 h + PSTI, mean +/− SEM
# Method: as §1
# [2] = tested on: 90% small intestine (SI) tissue (non-clamped segment of bowel); assay: Gut I/R model, non-clamped 90% SI site; conditions: 90% SI non-clamped, mean ± SEM
# 50% SI (clamped region) = assay: Gut ischemia-reperfusion (I/R) model, clamped 50% SI site
# RIE1 cells = assay: Apoptotic and protective pathways after H/R in RIE1 cells; format: cell-based, rat; conditions: RIE1, Hyp 1 h/Rep 24 h + PSTI, mean +/− SEM
# Method: as §1
# [3] = tested on: human colonic carcinoma HT29 cells; conditions: HT29 cells in vitro; cited from earlier work
# [4] = tested on: NSAID-induced gastric injury; conditions: rats, PSTI administration; cited from earlier work
# [5] = IR + PSTI 20 μg/kg ip, mean ± SEM
# [6] = PSTI 20 μg/kg ip, vs I/R without PSTI
# [7] = 50% SI clamped, PSTI 20 μg/kg ip, vs I/R without PSTI
substance,measurement,setting,value
pancreatic secretory trypsin inhibitor (DSLGREAKCYNELNGCTKIYDPVCGTDGNTYPNECVLCFENRKRQTSILIQKSGPC; listed as Homo sapiens) [PSTI],Caspase 3,"lung tissue; IR + PSTI 20 μg/kg ip 1 h before clamping, mean ± SEM",0.092 ± 0.022 Change in absorbance
same,Baxα,lung tissue; [5],3.74 ± 0.21 pg/μg total protein
same,Bcl2,lung tissue; [5],45.66 ± 3.79 pg/μg total protein
same,Caspase 9,lung tissue; [5],0.063 ± 0.004 Change in absorbance
same,Claudin 1,lung tissue; [5],9.63 ± 0.40 pg/μg total protein
same,ZO1,lung tissue; [5],8.15 ± 0.80 pg/μg total protein
same,histological damage of lung,"lung tissue; PSTI 20 μg/kg ip 1 h before clamping, vs I/R without PSTI",markedly truncated these effects; also recorded: protective effects; also recorded: markedly truncated the adverse effects; also recorded: significantly reduced histological scoring of lung damage
same,MDA levels,lung tissue; [6],this increase was truncated; also recorded: significantly reduced MDA levels
same,MPO levels (neutrophil infiltration),lung tissue; [6],reduced neutrophil infiltration of the lungs; also recorded: significantly reducing these changes; also recorded: significantly reduced MPO levels
same,truncation of the increase in HRP permeability,"[1]; Caco-2, end of the 1 h hypoxic period",about 54%
same,truncation of the increase in HRP permeability,"[1]; Caco-2, final H/R time point (1 h hypoxia + 24 h)",37%
same,truncation of the 300% increase in transepithelial permeability (horse radish peroxidase translocation),"[1]; Caco-2 monolayers, hypoxia/reperfusion 1 h+24 h, p<0.01",50%
same,"I/R-induced change in HRP permeability, medium alone vs PSTI",[1]; PSTI added to the medium prior to I/R,significantly greater increases in permeability compared to those that had PSTI added
same,HRP permeation under normoxic conditions,[1]; normoxia,no effect on TEER or HRP permeation
same,migration and invasion,bladder cancer,causes autocrine-mediated migration and invasion in bladder cancer
same,phosphorylation of signalling proteins,bladder cancer,"phosphorylates the EGF receptor, Akt2 and Akt3, and ERK1 and ERK2"
same,Baxα,AGS cells,110.9 +/− 2.79 * $ % normoxic
same,Bcl2,AGS cells,49.3 +/− 1.91 ** $$ % normoxic
same,Caspase 3,AGS cells,228.2 +/− 18.72 * $ % normoxic
same,Caspase 9,AGS cells,119.8 +/− 13.25 * $ % normoxic
same,Claudin 1,AGS cells,77.3 +/− 3.63 ** $$ % normoxic
same,HIF1α,AGS cells,145.2 +/− 0.66 ** $$ % normoxic
same,ICAM1,AGS cells,113.6 +/− 0.12 **^ % normoxic
same,VEGF,AGS cells,125.82 +/− 2.0 ** $$ % normoxic
same,ZO1,AGS cells,82.1 +/− 0.98 ** $ % normoxic
same,hSP70,AGS cells,132.9 +/− 1.05 ** $ % normoxic
same,Histological score (0-5),"[2]; I/R + PSTI 20 μg/kg ip 1 h before clamping, 30 min ischemia/3 h reperfusion",0.142 ± 0.142
same,Bcl2,[2]; I/R + PSTI 20 μg/kg ip,5.55 ± 1.00 pg/μg total protein
same,Caspase 3,[2]; I/R + PSTI 20 μg/kg ip,0.021 ± 0.007 Change in absorbance
same,Caspase 9,[2]; I/R + PSTI 20 μg/kg ip,0.014 ± 0.00052 Change in absorbance
same,Claudin 1,[2]; I/R + PSTI 20 μg/kg ip,0.152 ± 0.014 pg/μg total protein
same,ZO1,[2]; I/R + PSTI 20 μg/kg ip,0.17 ± 0.008 pg/μg total protein
same,ICAM1 levels,"50% SI (clamped region); 50% SI clamped (gut), PSTI 20 μg/kg ip, vs I/R without PSTI",did not affect increased ICAM1; also recorded: no effect on these results; also recorded: did not affect ICAM1 levels
same,histological damage of small intestine,"50% SI (clamped region); 50% SI clamped, PSTI 20 μg/kg ip 1 h before clamping, vs I/R without PSTI",much less extensive damage; also recorded: protective effects; also recorded: significantly reduced histological scoring
same,Baxα levels,50% SI (clamped region); [7],truncated the increase; also recorded: significantly decreased the damaging pro-apoptotic Baxα activity
same,Bcl2 levels,50% SI (clamped region); [7],maintained levels; also recorded: significantly increased the protective anti-apoptotic Bcl2 activity
same,Caspase 3 levels,50% SI (clamped region); [7],virtually eliminated; also recorded: significantly decreased Caspase 3 activity
same,Caspase 9 levels,50% SI (clamped region); [7],virtually eliminated; also recorded: significantly decreased Caspase 9 activity
same,Claudin1 levels,50% SI (clamped region); [7],virtually completely prevented; also recorded: significantly increased the protective Claudin1
same,HIF1α levels,50% SI (clamped region); [7],further increasing HIF1α and VEGF; also recorded: significantly increased the protective HIF1α
same,MDA levels,50% SI (clamped region); [7],this increase was truncated; also recorded: significantly reduced MDA levels
same,MPO levels,50% SI (clamped region); [7],significantly reducing these changes; also recorded: significantly reduced MPO levels
same,VEGF levels,50% SI (clamped region); [7],further increasing HIF1α and VEGF; also recorded: significantly increased the protective VEGF
same,ZO1 levels,50% SI (clamped region); [7],virtually completely prevented; also recorded: significantly increased the protective ZO1
same,hSP70 levels,50% SI (clamped region); [7],Additional increases in hSP70 expression; also recorded: significantly increased the protective hSP70
same,reduction of all injury markers,"50% SI (clamped region); gut, lung, kidney (necrosis, MDA, MPO), PSTI 20 μg/kg, p<0.01",50-80%
same,"histological and biochemical markers of injury in gut, lung and kidney",50% SI (clamped region); pre-treatment with PSTI,significantly reduced histological and biochemical markers of injury
same,Baxα,RIE1 cells,97.6 +/− 0.01 ** $ % normoxic
same,Bcl2,RIE1 cells,49.3 +/− 1.91 ** $$ % normoxic
same,Caspase 3,RIE1 cells,112.3 +/− 2.70 * % normoxic
same,Caspase 9,RIE1 cells,120.6 +/− 17.02 * $ % normoxic
same,Claudin 1,RIE1 cells,75.6 +/− 2.1 ** $$ % normoxic
same,HIF1α,RIE1 cells,144.1 +/− 0.17 ** $$ % normoxic
same,ICAM1,RIE1 cells,115.4 +/− 1.09 ** % normoxic
same,VEGF,RIE1 cells,121.8 +/− 2.53 ** $$ % normoxic
same,ZO1,RIE1 cells,83.6 +/− 0.69 * $ % normoxic
same,hSP70,RIE1 cells,122.9 +/− 0.85 ** % normoxic
same,cell migration,[3],stimulate cell migration
same,proliferation,[3],not proliferation
same,NSAID-induced gastric injury,[4],reduces NSAID-induced gastric injury

# Source: patent publication US20200323954A1, “METHODS AND COMPOSITIONS FOR REDUCING GUT ISCHEMIA/REPERFUSION-INDUCED INJURY” (PanTheryx, Inc., priority 2019, published 2020)
